Each molecule was assayed against T1, PLK1 (Homo sapiens, UniProt P53350) (assay: Luciferase assay for PLK1 in HeLa LgBit (Plk1-HiBit KI) cell line). Conditions: 300 nM compound, luminescence after 9 hours.
T1 construct: endogenous in cells; host or cells: HeLa LgBit (Plk1-HiBit KI): HeLa stably expressing LgBit, with a CRISPR/Cas9 knock-in of HiBit at the endogenous PLK1 locus
Format: cell-based
Summary of the method: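 Luminescence, followed in real time after adding compound at 300 nM and Endurazine substrate, is reported relative to DMSO-treated wells. Cells are a HeLa LgBit line with a Plk1-HiBit knock-in, synchronized by 2 mM thymidine for 24 h, released, and cultured 18 h before treatment.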

T1 sequence (P53350 whole entry): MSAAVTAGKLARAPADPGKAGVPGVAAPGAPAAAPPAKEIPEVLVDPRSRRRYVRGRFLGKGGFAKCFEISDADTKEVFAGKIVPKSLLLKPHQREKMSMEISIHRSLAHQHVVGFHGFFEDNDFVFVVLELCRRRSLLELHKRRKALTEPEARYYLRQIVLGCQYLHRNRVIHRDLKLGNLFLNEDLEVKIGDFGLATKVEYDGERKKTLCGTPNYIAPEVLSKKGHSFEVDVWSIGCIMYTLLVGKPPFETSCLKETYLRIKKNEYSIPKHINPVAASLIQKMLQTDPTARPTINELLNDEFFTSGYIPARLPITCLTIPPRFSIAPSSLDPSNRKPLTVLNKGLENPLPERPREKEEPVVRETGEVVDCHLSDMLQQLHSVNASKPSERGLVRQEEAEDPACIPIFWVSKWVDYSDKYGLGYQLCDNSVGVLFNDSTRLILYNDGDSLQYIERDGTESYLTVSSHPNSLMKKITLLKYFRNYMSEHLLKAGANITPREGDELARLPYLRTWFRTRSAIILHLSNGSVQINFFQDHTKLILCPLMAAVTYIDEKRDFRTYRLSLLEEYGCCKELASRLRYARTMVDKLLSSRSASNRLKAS

SMILES	Activity: ratio of the luminescense value of each Exemplary Compound treatment group to DMSO treatment group
COc1cc(C(=O)N2CCN(CCCCNc3cccc4c3C(=O)N(C3CCC(=O)NC3=O)C4=O)CC2)c(F)cc1Nc1ncc2c(n1)N(C1CCCC1)CC(F)(F)C(=O)N2C (stereo not drawn) [Compound 184, 4-((4-(4-(4-((9-cyclopentyl-7,7-difluoro-5-methyl-6-oxo-6,7,8,9-tetrahydro-5H-pyrimido[4,5-b][1,4]diazepin-2-yl)amino)-2-fluoro-5-methoxybenzoyl)piperazin-1-yl)butyl)amino)-2-(2,6-dioxopiperidin-3-yl)isoindoline-1,3-dione]	+ (+<0.7)
COc1cc(C(=O)N2CCN(CCCNc3ccc4c(c3)C(=O)N(C3CCC(=O)NC3=O)C4=O)CC2)c(F)cc1Nc1ncc2c(n1)N(C1CCCC1)CC(F)(F)C(=O)N2C (stereo not drawn) [Compound 186, 5-((3-(4-(4-((9-cyclopentyl-7,7-difluoro-5-methyl-6-oxo-6,7,8,9-tetrahydro-5H-pyrimido[4,5-b][1,4]diazepin-2-yl)amino)-2-fluoro-5-methoxybenzoyl)piperazin-1-yl)propyl)amino)-2-(2,6-dioxopiperidin-3-yl)isoindoline-1,3-dione]	++ (++<0.6)
COc1cc(C(=O)N2CCN(CCCCNc3ccc4c(c3)C(=O)N(C3CCC(=O)NC3=O)C4=O)CC2)c(F)cc1Nc1ncc2c(n1)N(C1CCCC1)CC(F)(F)C(=O)N2C (stereo not drawn) [Compound 187, 5-((4-(4-(4-((9-cyclopentyl-7,7-difluoro-5-methyl-6-oxo-6,7,8,9-tetrahydro-5H-pyrimido[4,5-b][1,4]diazepin-2-yl)amino)-2-fluoro-5-methoxybenzoyl)piperazin-1-yl)butyl)amino)-2-(2,6-dioxopiperidin-3-yl)isoindoline-1,3-dione]	+ (+<0.7)
COc1cc(C(=O)N2CCC(N3CCN(CCOCCNc4cccc5c4C(=O)N(C4CCC(=O)NC4=O)C5=O)CC3)CC2)c(F)cc1Nc1ncc2c(n1)N(C1CCCC1)CC(F)(F)C(=O)N2C (stereo not drawn) [Compound 189, 4-((2-(2-(4-(1-(4-((9-cyclopentyl-7,7-difluoro-5-methyl-6-oxo-6,7,8,9-tetrahydro-5H-pyrimido[4,5-b][1,4]diazepin-2-yl)amino)-2-fluoro-5-methoxybenzoyl)piperidin-4-yl)piperazin-1-yl)ethoxy)ethyl)amino)-2-(2,6-dioxopiperidin-3-yl)isoindoline-1,3-dione]	++ (++<0.6)
COc1cc(C(=O)N2CCC(N3CCN(CCOCCNc4ccc5c(c4)C(=O)N(C4CCC(=O)NC4=O)C5=O)CC3)CC2)c(F)cc1Nc1ncc2c(n1)N(C1CCCC1)CC(F)(F)C(=O)N2C (stereo not drawn) [Compound 191, 5-((2-(2-(4-(1-(4-((9-cyclopentyl-7,7-difluoro-5-methyl-6-oxo-6,7,8,9-tetrahydro-5H-pyrimido[4,5-b][1,4]diazepin-2-yl)amino)-2-fluoro-5-methoxybenzoyl)piperidin-4-yl)piperazin-1-yl)ethoxy)ethyl)amino)-2-(2,6-dioxopiperidin-3-yl)isoindoline-1,3-dione]	++ (++<0.6)
COc1cc(C(=O)N2CCC(N3CCN(CCOCCCNc4ccc5c(c4)C(=O)N(C4CCC(=O)NC4=O)C5=O)CC3)CC2)c(F)cc1Nc1ncc2c(n1)N(C1CCCC1)CC(F)(F)C(=O)N2C (stereo not drawn) [Compound 192, 5-((3-(2-(4-(1-(4-((9-cyclopentyl-7,7-difluoro-5-methyl-6-oxo-6,7,8,9-tetrahydro-5H-pyrimido[4,5-b][1,4]diazepin-2-yl)amino)-2-fluoro-5-methoxybenzoyl)piperidin-4-yl)piperazin-1-yl)ethoxy)propyl)amino)-2-(2,6-dioxopiperidin-3-yl)isoindoline-1,3-dione]	++ (++<0.6)
COc1cc(C(=O)NC2CCC(N3CCN(CCOCCNc4ccc5c(c4)C(=O)N(C4CCC(=O)NC4=O)C5=O)CC3)CC2)c(F)cc1Nc1ncc2c(n1)N(C1CCCC1)CC(F)(F)C(=O)N2C (stereo not drawn) [Compound 193, 4-((9-cyclopentyl-7,7-difluoro-5-methyl-6-oxo-6,7,8,9-tetrahydro-5H-pyrimido[4,5-b][1,4]diazepin-2-yl)amino)-N-((1r,4r)-4-(4-(2-(2-((2-(2,6-dioxopiperidin-3-yl)-1,3-dioxoisoindolin-5-yl)amino)ethoxy)ethyl)piperazin-1-yl)cyclohexyl)-2-fluoro-5-methoxybenzamide]	++ (++<0.6)
COc1cc(C(=O)N[C@H]2CC[C@H](N3CCN(CCNc4cccc5c4C(=O)N(C4CCC(=O)NC4=O)C5=O)CC3)CC2)c(F)cc1Nc1ncc2c(n1)N(C1CCCC1)CC(F)(F)C(=O)N2C (stereo partly drawn) [Compound 196, 4-((9-cyclopentyl-7,7-difluoro-5-methyl-6-oxo-6,7,8,9-tetrahydro-5H-pyrimido[4,5-b][1,4]diazepin-2-yl)amino)-N-((1r,4r)-4-(4-(2-((2-(2,6-dioxopiperidin-3-yl)-1,3-dioxoisoindolin-4-yl)amino)ethyl)piperazin-1-yl)cyclohexyl)-2-fluoro-5-methoxybenzamide]	++ (++<0.6)
COc1cc(C(=O)N[C@H]2CC[C@H](N3CCN(CCOCCOc4cccc5c4CN(C4CCC(=O)NC4=O)C5=O)CC3)CC2)ccc1Nc1ncc2c(n1)N(C1CCCC1)CC(F)(F)C(=O)N2C (stereo partly drawn) [Compound 198, 4-((9-cyclopentyl-7,7-difluoro-5-methyl-6-oxo-6,7,8,9-tetrahydro-5H-pyrimido[4,5-b][1,4]diazepin-2-yl)amino)-N-((1r,4r)-4-(4-(2-(2-((2-(2,6-dioxopiperidin-3-yl)-1-oxoisoindolin-4-yl)oxy)ethoxy)ethyl)piperazin-1-yl)cyclohexyl)-3-methoxybenzamide]	++ (++<0.6)
COc1cc(C(=O)NC2CCN(C(=O)CCCCCOC3CN(c4cccc5c4C(=O)N(C4CCC(=O)NC4=O)C5=O)C3)CC2)ccc1Nc1ncc2c(n1)N(C1CCCC1)CC(F)(F)C(=O)N2C (stereo not drawn) [Compound 199, 4-((9-cyclopentyl-7,7-difluoro-5-methyl-6-oxo-6,7,8,9-tetrahydro-5H-pyrimido[4,5-b][1,4]diazepin-2-yl)amino)-N-(1-(6-((1-(2-(2,6-dioxopiperidin-3-yl)-1,3-dioxoisoindolin-4-yl)azetidin-3-yl)oxy)hexanoyl)piperidin-4-yl)-3-methoxybenzamide]	+ (+<0.7)
COc1cc(C(=O)NN2CCN(C3CN(c4cccc5c4C(=O)N(C4CCC(=O)NC4=O)C5=O)C3)CC2)ccc1Nc1ncc2c(n1)N(C1CCCC1)CC(F)(F)C(=O)N2C (stereo not drawn) [Compound 200, 4-((9-cyclopentyl-7,7-difluoro-5-methyl-6-oxo-6,7,8,9-tetrahydro-5H-pyrimido[4,5-b][1,4]diazepin-2-yl)amino)-N-(4-(1-(2-(2,6-dioxopiperidin-3-yl)-1,3-dioxoisoindolin-4-yl)azetidin-3-yl)piperazin-1-yl)-3-methoxybenzamide]	+ (+<0.7)
COc1cc(C(=O)NC2CCN(C(=O)CC3CN(c4cccc5c4C(=O)N(C4CCC(=O)NC4=O)C5=O)C3)CC2)c(F)cc1Nc1ncc2c(n1)N(C1CCCC1)CC(F)(F)C(=O)N2C (stereo not drawn) [Compound 204, 4-((9-cyclopentyl-7,7-difluoro-5-methyl-6-oxo-6,7,8,9-tetrahydro-5H-pyrimido[4,5-b][1,4]diazepin-2-yl)amino)-N-(1-(2-(1-(2-(2,6-dioxopiperidin-3-yl)-1,3-dioxoisoindolin-4-yl)azetidin-3-yl)acetyl)piperidin-4-yl)-2-fluoro-5-methoxybenzamide]	+ (+<0.7)
COc1cc(C(=O)NC2CCN(C(=O)[C@@H]3C[C@H](Nc4cccc5c4C(=O)N(C4CCC(=O)NC4=O)C5=O)CN3)CC2)c(F)cc1Nc1ncc2c(n1)N(C1CCCC1)CC(F)(F)C(=O)N2C (stereo partly drawn) [Compound 206, 4-((9-cyclopentyl-7,7-difluoro-5-methyl-6-oxo-6,7,8,9-tetrahydro-5H-pyrimido[4,5-b][1,4]diazepin-2-yl)amino)-N-(1-((2S,4S)-4-((2-(2,6-dioxopiperidin-3-yl)-1,3-dioxoisoindolin-4-yl)amino)pyrrolidine-2-carbonyl)piperidin-4-yl)-2-fluoro-5-methoxybenzamide]	+ (+<0.7)
COc1cc(C(=O)NN2CCC(N3CC4(CCN(c5ccc6c(c5)C(=O)N(C5CCC(=O)NC5=O)C6=O)CC4)C3)CC2)ccc1Nc1ncc2c(n1)N(C(C)C)CC(F)(F)C(=O)N2C (stereo not drawn) [Compound 214, 4-((7,7-difluoro-9-isopropyl-5-methyl-6-oxo-6,7,8,9-tetrahydro-5H-pyrimido[4,5-b][1,4]diazepin-2-yl)amino)-N-(4-(7-(2-(2,6-dioxopiperidin-3-yl)-1,3-dioxoisoindolin-5-yl)-2,7-diazaspiro[3.5]nonan-2-yl)piperidin-1-yl)-3-methoxybenzamide]	+ (+<0.7)
COc1cc(C(=O)NCCOCCNc2cccc3c2C(=O)N(C2CCC(=O)NC2=O)C3=O)c(N2CCN(C)CC2)cc1Nc1ncc2c(n1)N(C1CCCC1)CC(F)(F)C(=O)N2C (stereo not drawn) [Compound 221, 4-((9-cyclopentyl-7,7-difluoro-5-methyl-6-oxo-6,7,8,9-tetrahydro-5H-pyrimido[4,5-b][1,4]diazepin-2-yl)amino)-N-(2-(2-((2-(2,6-dioxopiperidin-3-yl)-1,3-dioxoisoindolin-4-yl)amino)ethoxy)ethyl)-5-methoxy-2-(4-methylpiperazin-1-yl)benzamide]	+ (+<0.7)

Reference: US20250114460A1, “NOVEL PLK1 DEGRADATION INDUCING COMPOUND” (UPPTHERA, INC., priority 2021, published 2025)
